Results on nine compounds are retold here after US20080227724A1, “Anti-Inflammatory Agents” (CAMBRIDGE UNIVERSITY TECHNICAL SERVICES LIMITED, priority 2003, published 2008).

Bridge positions count the residues as written; N and C are the ends. Square brackets hold non-standard residues; d marks the D form. Ends that are not written are not given here.

The subject of series [1] is chemokine-induced migration. The series can be described thus: Chemokine-induced leukocyte migration in vitro (prior art). The class given is cell-based. The following applies: parental molecule (S)-3-(undec-10-enoyl)-aminoglutarimide.
Series [2] is classed as in vitro ADME, human. An excerpt: As an approach to identifying such stable analogs, various derivatives of (S)-3-(undec-10-enoyl)-aminoglutarimide have been tested for their stability in serum.
The next series has as its system TNF-alpha. The series is described as follows: Sub-lethal LPS-induced endotoxemia model, circulating TNF-alpha. Type of series: in vivo, CD-1 mice. The following applies: for block of TNF-alpha stimulation: at a suitable dose. The protocol:
The anti-inflammatory activity of the compounds of the invention was determined in vivo using a sub-lethal LPS-induced endotoxemia model. Adult male CD-1 mice (n=6 per group) were pretreated with various agents (vehicle, compounds of the invention or positive control agents such as the steroid dexamethasone) by sub-cutaneous injection 30 minutes prior to an acute inflammatory challenge with 750 μg of bacterial lipopolysaccharide (from E. Coli 0111:B4; Sigma catalog #L-4130) via the intraperitoneal route. The vehicle in each case was 0.6% DMSO, 1% carboxymethyl cellulose, or alternatively 1% carboxymethylcellulose alone. For some of the compounds, this formulation results in a finely divided suspension or slurry rather than a clear solution. Two hours after LPS challenge, the animals were sacrificed and blood was drawn by cardiac puncture. The level of the pro-inflammatory cytokine TNF-alpha was determined using the Quantikine M ELISA (R&D Systems) for murine TNF-alpha, and reported as the mean ±standard error for each group.
By 2 hours after the LPS challenge, this had increased by more than 1,000 fold to an average of 20,000 pg/ml, representing a sensitive index of inflammatory activation. Pre-treatment with known anti-inflammatory drugs (such as the steroid dexamethasone) reduced the stimulation of TNF-alpha by up to 85-95%, depending on the dose given.
In a separate series of experiments, the compounds of the invention were administered to animals as an oral suspension, formulated in the same way as for the sub-cutaneous dosing experiments, followed 1 hour later with the LPS challenge exactly as described above. […] All five compounds were maximally active at a dose below 30 mg/kg.

In series [3] the test system is MCP-1 induced THP-1 cell migration. The series can be described thus: Inhibition of MCP-1 induced leukocyte migration (transwell migration assay). The following applies: inhibition of MCP-1 induced THP-1 cell migration, dose-response curves. Type of series: cell-based, human. On the procedure: In principle, this assay consists of two chambers separated by a porous membrane. The chemoattractant is placed in the lower compartment and the cells are placed in the upper compartment. After incubation for a period at 37° C. the cells move towards the chemoattractant, and the number of cells in the lower compartment is proportional to the chemoattractant activity (relative to a series of controls). The THP-1 cell line (European Cell culture Collection) were used as the leukocyte cell population. The following procedure is used for testing the invention compounds for MCP-1 induced leukocyte migration: First, the cell suspension to be placed in the upper compartment is prepared. The THP-1 cells are pelleted by centrifugation (770×g; 4 mins) and washed with Geys Balanced Salt Solution with 1 mg/ml BSA (GBSS+BSA). This wash is then repeated, and the cells repelleted before being resuspended in a small volume of GBSS+BSA for counting, for example using a standard haemocytometer. The volume of GBSS+BSA is then adjusted depending on the number of cells present so that the cells are at final density of 4.45×10^6 cells per ml of GBSS+BSA. […] The number of cells migrated into the lower chamber under each condition can then be determined by a number of methods, including direct counting, labelling with fluorescent or radioactive markers or through the use of a vital dye. […]

For series [4] the following is noted: cited from earlier work.
[5] abbreviates: oral suspension 1 hour before LPS.
Setting [6] is: sub-cutaneous injection 30 minutes prior to LPS.

Turning to `C=CCCCCCCCCC(=O)[C@@H]1CCCNC1=O` [(S)-3-(undec-10-enoyl)-tetrahydropyridin-2-one], the “potency compared with the parental molecule” value in series [1] is “considerably reduced potency”. In addition, the “time completely stable in human serum” value in series [2] (human, 7 days) is recorded as “at least 7 days”.
As to `C=CCCCCCCCCC(=O)N[C@H]1CCC(=O)NC1=O` [NR58,4, (S)-3-(undec-10-enoyl)-aminoglutarimide], the “stability of the aminoglutarimide ring in serum” value in series [2] is “susceptible to enzymatic ring opening in serum”.
Regarding `C[C@@H]1C[C@H]2[C@@H]3CCC4=CC(=O)C=C[C@]4(C)[C@@]3(F)[C@@H](O)C[C@]2(C)[C@@]1(O)C(=O)CO` [dexamethasone, reference compound], the “reduction of the stimulation of TNF-alpha” value in the series on TNF-alpha (pre-treatment, 2 hours after LPS challenge, depending on the dose given) is 85-95%.
Consider “(R)-3-hexadecanoylamino-caprolactam [Example 7]”, for which the entries for the “block of TNF-alpha stimulation” value in the series on TNF-alpha (setting [5]) and in the series on TNF-alpha (setting [6]) were “able to block TNF-alpha stimulation” and “block TNF-alpha stimulation to a similar extent to dexamethasone”, respectively.
As for “(S)-3-(2′,2′-Dimethyl-propionyl)amino-caprolactam [Example 20]”, the “block of TNF-alpha stimulation” value with TNF-alpha (setting [5]) is on record as “able to block TNF-alpha stimulation”; with TNF-alpha (setting [6]), “block TNF-alpha stimulation to a similar extent to dexamethasone”.
Regarding “(S)-3-(2′,2′-dimethyl-dodecanoyl)amino-caprolactam [Example 12]”, the “(S)-enantiomer more active than the (R)-enantiomer” value in series [3] is given as 10-50 fold. In addition, the “block of TNF-alpha stimulation” value in the series with TNF-alpha (setting [5]) is “able to block TNF-alpha stimulation”; in the series with TNF-alpha (setting [6]), “block TNF-alpha stimulation to a similar extent to dexamethasone”.
“(S)-(Z)-3-(hexadec-9-enoyl)amino-caprolactam [Example 9]”: the “block of TNF-alpha stimulation” value in the series on TNF-alpha (setting [5]) is “able to block TNF-alpha stimulation”; with TNF-alpha (setting [6]), “block TNF-alpha stimulation to a similar extent to dexamethasone”.
Regarding “(S)-(Z)-3-(octadec-9-enoyl)amino-caprolactam [Example 10]”, the “block of TNF-alpha stimulation” value is given as “able to block TNF-alpha stimulation” with TNF-alpha (setting [5]) and “block TNF-alpha stimulation to a similar extent to dexamethasone” with TNF-alpha (setting [6]).
As to “c(DCys-DGln-DIle-DTrp-DLys-DGln-DLys-DPro-DAsp-DLeu-DCys)-NH2 ([dC][dQ][dI][dW][dK][dQ][dK][dP][dD][dL][dC]-NH2; disulfide 1-11 (inferred)) [NR58-3.14.3]”, the “half-life period of clearance from blood plasma” value in series [4] (after intravenous injection) is given as “less than 30 minutes”. Moreover, the oral bioavailability entry in series [4] (in vivo, po) is given as “not orally bioavailable”.
